Tests used:
[1] = solubility in water; type: physicochemical
[2] = physical (crystal form) stability of the solid; type: physicochemical; conditions: for stability of the crystal form: ambient condition

solubility in water (in words) [1]	stability of the crystal form [2]	crystal form change on heating ([2]; heated to above 40° C. under very dry nitrogen flow)	solubility [1]	Compound
high solubility in water				NC(CC(=O)N1CCn2c(nnc2C(F)(F)F)C1)Cc1cc(F)c(F)cc1F (stereo not drawn) [4-oxo-4-[3-(trifluoromethyl)-5,6-dihydro[1 ,2,4]triazolo[4,3-a]pyrazin-7(8H)-yl]-1-(2,4,5-trifluorophenyl) butan-2-amine]
high solubility in water	stable under ambient condition	convert to dehydrated monohydrate	~72 mg/mL	N[C@@H](CC(=O)N1CCn2c(nnc2C(F)(F)F)C1)Cc1cc(F)c(F)cc1F [(2R)-4-oxo-4-[3-(trifluoromethyl)-5,6-dihydro[1,2,4]triazolo[4,3-a]pyrazin-7(8H)-yl]-1-(2,4,5-trifluorophenyl)butan-2-amine dihydrogenphosphate monohydrate]
	converted back to monohydrate			N[C@@H](CC(=O)N1CCn2c(nnc2C(F)(F)F)C1)Cc1cc(F)c(F)cc1F.O=P(O)(O)O [Dehydrated monohydrate]

— patent US7326708B2, “Phosphoric acid salt of a dipeptidyl peptidase-IV inhibitor” (Merck & Co., Inc., priority 2003, dated 2008)
